In patent JPH0770139A, “2−(モノ又はジ置換−6，7−ジヒドロ−5H−ピラゾロ[1，2−a]ピラゾリウム−6−イル)チオ−カルバペネム誘導体” (Lederle Japan Ltd, priority 1993, dated 1994):

tested on: male CrjCD(SD) mice [CrjCD(SD)系雄性マウス]; assay: Toxicity test (subcutaneous administration to mice, 1 week observation); format: in vivo, mouse; conditions: 500mg/kg, 10 male CrjCD(SD) mice, body weight 20-23 g, observation for 1 week

SMILES	survival without abnormality
C[C@@H](O)[C@H]1C(=O)N2C(C(=O)[O-])=C(SC3Cn4cc(F)c[n+]4C3)[C@H](C)[C@H]12 (stereo partly drawn) [化合物(30), (1R,5S,6S)−2−[(6,7−ジヒドロ−2−フルオロ−5H−ピラゾロ[1.2−a]ピラゾリウム−6−イル)チオ]−6−[(R)−1−ヒドロキシエチル]−1−メチルカルバペン−2−エム−3−カルボキシレート]	すべて異常なく生存した
C[C@@H](O)[C@H]1C(=O)N2C(C(=O)[O-])=C(SC3Cn4cc(C(=O)N(C)C)c[n+]4C3)[C@H](C)[C@H]12 (stereo partly drawn) [化合物(28), (1R,5S,6S)−2−{[6,7−ジヒドロ−2−(N,N−ジメチルカルバモイル)−5H−ピラゾロ[1.2−a]ピラゾリウム−6−イル]チオ}−6−[(R)−ヒドロキシエチル]−1−メチルカルバペン−2−エム−3−カルボキシレート]	すべて異常なく生存した
Cc1cc(C)[n+]2n1CC(SC1=C(C(=O)[O-])N3C(=O)[C@H]([C@@H](C)O)[C@H]3[C@H]1C)C2 (stereo partly drawn) [化合物(26), (1R,5S,6S)−2−[(6,7−ジヒドロ−1,3−ジメチル−5H−ピラゾロ[1,2−a]ピラゾリウム−6−イル)チオ]−6−[(R)−1−ヒドロキシエチル]−1−メチル−カルバペン−2−エム−3−カルボキシレート]	すべて異常なく生存した
